Experimental data as given in PMC3961306, “Comparison of the Cancer Gene Targeting and Biochemical Selectivities of All Targeted Kinase Inhibitors Approved for Clinical Use” (PLoS ONE, 2014).

Columns and labels:
Assay in all cases: Kinase profiling in a biochemical assay panel (mobility shift assays and ELISA), %-inhibition at 1 μM; selectivity entropy
[1] = target: panel of more than 300 wild-type and mutant kinases (313 kinase panel) (Homo sapiens, UniProt P22607); settings: kinase FGFR3; compound at 1 μM
Sequence of panel of more than 300 wild-type and mutant kinases (313 kinase panel) (Homo sapiens, UniProt P22607) (P22607 23-806, change not shown): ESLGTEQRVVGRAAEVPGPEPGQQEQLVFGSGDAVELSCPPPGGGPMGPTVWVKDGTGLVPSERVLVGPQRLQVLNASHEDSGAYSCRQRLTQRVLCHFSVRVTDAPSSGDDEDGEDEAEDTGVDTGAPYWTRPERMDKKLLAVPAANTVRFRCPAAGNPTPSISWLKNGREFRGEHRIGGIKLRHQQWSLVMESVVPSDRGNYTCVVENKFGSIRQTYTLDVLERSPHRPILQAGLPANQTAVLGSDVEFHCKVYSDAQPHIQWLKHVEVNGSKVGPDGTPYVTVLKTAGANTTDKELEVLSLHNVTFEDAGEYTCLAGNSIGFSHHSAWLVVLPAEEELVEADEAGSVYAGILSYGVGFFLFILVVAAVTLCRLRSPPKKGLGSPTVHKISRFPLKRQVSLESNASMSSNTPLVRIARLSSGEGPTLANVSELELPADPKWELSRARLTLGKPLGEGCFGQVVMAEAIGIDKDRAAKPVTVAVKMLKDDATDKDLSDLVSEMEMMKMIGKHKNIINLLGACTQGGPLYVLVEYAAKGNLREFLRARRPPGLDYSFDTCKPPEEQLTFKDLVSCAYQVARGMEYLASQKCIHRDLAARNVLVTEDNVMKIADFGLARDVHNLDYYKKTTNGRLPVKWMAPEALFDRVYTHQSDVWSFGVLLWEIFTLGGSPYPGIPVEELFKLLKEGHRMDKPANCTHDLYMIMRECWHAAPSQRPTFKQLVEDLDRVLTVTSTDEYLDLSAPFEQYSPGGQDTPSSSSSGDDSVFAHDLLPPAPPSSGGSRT

[2] = target: T1, panel of more than 300 wild-type and mutant kinases (313 kinase panel) (Homo sapiens, UniProt Q02156); settings: kinase PKCε; 1 μM
T1 sequence (Q02156 1-737): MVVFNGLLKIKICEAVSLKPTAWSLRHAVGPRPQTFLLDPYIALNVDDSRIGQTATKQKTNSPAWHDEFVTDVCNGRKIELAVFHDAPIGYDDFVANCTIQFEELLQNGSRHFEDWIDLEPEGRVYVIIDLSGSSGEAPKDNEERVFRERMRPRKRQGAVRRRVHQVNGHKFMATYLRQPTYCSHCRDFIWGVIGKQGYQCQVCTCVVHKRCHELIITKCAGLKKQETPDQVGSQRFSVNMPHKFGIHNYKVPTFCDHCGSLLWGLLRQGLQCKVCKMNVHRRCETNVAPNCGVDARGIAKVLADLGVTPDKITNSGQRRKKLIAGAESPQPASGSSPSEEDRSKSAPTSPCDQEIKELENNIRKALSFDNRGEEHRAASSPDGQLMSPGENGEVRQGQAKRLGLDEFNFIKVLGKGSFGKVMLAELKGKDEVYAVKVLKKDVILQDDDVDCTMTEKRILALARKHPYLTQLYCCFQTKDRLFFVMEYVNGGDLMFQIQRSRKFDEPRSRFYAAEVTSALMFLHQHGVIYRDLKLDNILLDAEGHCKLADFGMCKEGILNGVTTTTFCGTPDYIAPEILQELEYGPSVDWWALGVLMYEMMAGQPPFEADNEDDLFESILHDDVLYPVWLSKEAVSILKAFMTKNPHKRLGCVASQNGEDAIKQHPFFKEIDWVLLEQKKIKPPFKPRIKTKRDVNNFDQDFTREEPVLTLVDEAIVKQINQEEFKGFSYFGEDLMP

[3] = target: T2, panel of more than 300 wild-type and mutant kinases (313 kinase panel) (Homo sapiens, UniProt P30530)
T2 sequence (P30530 26-894): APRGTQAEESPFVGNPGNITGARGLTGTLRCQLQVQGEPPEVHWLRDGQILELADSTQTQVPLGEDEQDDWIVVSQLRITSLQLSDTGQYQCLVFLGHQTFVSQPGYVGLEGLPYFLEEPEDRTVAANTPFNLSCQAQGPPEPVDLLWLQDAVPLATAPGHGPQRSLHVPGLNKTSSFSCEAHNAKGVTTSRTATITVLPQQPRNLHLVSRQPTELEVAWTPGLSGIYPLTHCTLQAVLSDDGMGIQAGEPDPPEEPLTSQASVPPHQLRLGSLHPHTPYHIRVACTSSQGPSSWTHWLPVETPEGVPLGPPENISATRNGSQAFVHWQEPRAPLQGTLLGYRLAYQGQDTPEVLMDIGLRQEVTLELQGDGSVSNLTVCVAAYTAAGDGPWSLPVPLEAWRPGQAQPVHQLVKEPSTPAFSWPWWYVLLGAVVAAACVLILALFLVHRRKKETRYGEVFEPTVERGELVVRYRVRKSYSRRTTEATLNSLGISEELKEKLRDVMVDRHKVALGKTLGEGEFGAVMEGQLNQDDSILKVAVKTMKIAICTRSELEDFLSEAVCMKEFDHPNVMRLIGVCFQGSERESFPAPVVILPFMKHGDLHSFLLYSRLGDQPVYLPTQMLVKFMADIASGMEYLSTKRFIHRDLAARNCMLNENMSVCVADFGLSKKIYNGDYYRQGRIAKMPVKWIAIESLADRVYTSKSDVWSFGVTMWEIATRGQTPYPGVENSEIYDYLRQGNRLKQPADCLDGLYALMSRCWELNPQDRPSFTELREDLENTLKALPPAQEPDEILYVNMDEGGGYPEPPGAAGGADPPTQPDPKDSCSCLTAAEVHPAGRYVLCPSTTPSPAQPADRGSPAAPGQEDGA

[4] = target: panel of more than 300 wild-type and mutant kinases (313 kinase panel) (Homo sapiens, UniProt Q04912); settings: kinase RON; 1 μM
[5] = target: T3, panel of more than 300 wild-type and mutant kinases (313 kinase panel) (Homo sapiens, UniProt O14757); settings: kinase CHK1; 1 μM compound
T3 sequence (O14757 1-476): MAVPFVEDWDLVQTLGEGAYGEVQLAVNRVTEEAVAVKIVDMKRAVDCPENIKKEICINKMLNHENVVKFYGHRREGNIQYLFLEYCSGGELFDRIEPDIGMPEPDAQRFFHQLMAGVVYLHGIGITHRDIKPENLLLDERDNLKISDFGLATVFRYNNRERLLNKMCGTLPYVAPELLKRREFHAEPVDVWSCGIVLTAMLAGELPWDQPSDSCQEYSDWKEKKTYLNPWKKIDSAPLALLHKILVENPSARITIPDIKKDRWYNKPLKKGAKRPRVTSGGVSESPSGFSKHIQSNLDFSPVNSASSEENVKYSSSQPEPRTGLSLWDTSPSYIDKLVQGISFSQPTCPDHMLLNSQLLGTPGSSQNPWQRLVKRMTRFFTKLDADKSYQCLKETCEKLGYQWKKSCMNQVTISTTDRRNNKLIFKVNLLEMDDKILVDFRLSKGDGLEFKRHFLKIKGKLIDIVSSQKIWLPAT

[6] = target: panel of more than 300 wild-type and mutant kinases (313 kinase panel) (Homo sapiens, UniProt P11309); settings: kinase PIM1; 1 μM
[7] = target: panel of more than 300 wild-type and mutant kinases (313 kinase panel) (Homo sapiens, UniProt P11802)
Sequence of panel of more than 300 wild-type and mutant kinases (313 kinase panel) (Homo sapiens, UniProt P11802) (P11802 whole entry, change not shown): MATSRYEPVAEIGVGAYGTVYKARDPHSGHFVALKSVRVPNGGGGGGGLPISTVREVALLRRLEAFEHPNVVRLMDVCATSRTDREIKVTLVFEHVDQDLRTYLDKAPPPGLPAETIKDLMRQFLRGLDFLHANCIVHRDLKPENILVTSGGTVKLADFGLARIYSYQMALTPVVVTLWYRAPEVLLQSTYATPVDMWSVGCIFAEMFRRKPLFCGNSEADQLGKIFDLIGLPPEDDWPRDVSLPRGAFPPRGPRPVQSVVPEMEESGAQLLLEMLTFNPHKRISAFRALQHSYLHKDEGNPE

[8] = target: panel of more than 300 wild-type and mutant kinases (313 kinase panel) (Homo sapiens, UniProt P06241); settings: kinase FYN; compound at 1 μM
Sequence of panel of more than 300 wild-type and mutant kinases (313 kinase panel) (Homo sapiens, UniProt P06241) (P06241 whole entry, change not shown): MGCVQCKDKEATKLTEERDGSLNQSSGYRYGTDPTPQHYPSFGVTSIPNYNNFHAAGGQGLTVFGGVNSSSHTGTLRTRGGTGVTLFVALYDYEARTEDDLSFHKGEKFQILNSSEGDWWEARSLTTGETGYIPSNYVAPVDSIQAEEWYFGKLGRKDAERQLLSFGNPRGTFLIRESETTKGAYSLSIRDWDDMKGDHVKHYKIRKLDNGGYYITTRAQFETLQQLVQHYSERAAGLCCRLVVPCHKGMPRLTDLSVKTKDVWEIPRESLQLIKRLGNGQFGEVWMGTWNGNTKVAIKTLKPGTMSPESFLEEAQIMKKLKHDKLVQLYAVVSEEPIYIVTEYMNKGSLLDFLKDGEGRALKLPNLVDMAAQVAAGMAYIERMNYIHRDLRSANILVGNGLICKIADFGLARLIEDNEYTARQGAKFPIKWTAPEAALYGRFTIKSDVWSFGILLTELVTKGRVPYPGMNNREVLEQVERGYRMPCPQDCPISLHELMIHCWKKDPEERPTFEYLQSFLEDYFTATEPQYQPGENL

[9] = kinase CDK4/CycD3, 1 μM compound

## CC(C)(C)c1nc(-c2cccc(NS(=O)(=O)c3c(F)cccc3F)c2F)c(-c2ccnc(N)n2)s1 [dabrafenib]
[1]
  %-inhibition of FGFR3: 4.27%
[2]
  %-inhibition of PKCε: 5%
[3]; kinase AXL, 1 μM compound
  %-inhibition, AXL: 30%
[4]
  %-inhibition of RON: 37%

## CCCS(=O)(=O)Nc1ccc(F)c(C(=O)c2c[nH]c3ncc(-c4ccc(Cl)cc4)cc23)c1F [vemurafenib]
[5]
  %-inhibition, CHK1: 4%
[1]
  %-inhibition of FGFR3: 15%
[2]
  %-inhibition of PKCε: -8%
[6]
  %-inhibition of PIM1: -3.41%
[3]; kinase AXL, 1 μM compound
  %-inhibition, AXL: 20%
[7]; [9]
  %-inhibition, CDK4/CycD3: -3.26%
[4]
  %-inhibition of RON: -2%
[8]
  %-inhibition of FYN: 81%

## Cc1nc(Nc2ncc(C(=O)Nc3c(C)cccc3Cl)s2)cc(N2CCN(CCO)CC2)n1 [dasatinib]
[7]; [9]
  %-inhibition, CDK4/CycD3: 2.8%
[8]
  %-inhibition of FYN: 100%

## C[C@@H](Oc1cc(-c2cnn(C3CCNCC3)c2)cnc1N)c1c(Cl)ccc(F)c1Cl [crizotinib]
[5]
  %-inhibition, CHK1: 10%
[1]
  %-inhibition of FGFR3: 43%
[2]
  %-inhibition of PKCε: -7%
[6]
  %-inhibition of PIM1: -7%
[7]; [9]
  %-inhibition, CDK4/CycD3: 7%
[8]
  %-inhibition of FYN: 42%

## Cc1ccc(C(=O)Nc2ccc(CN3CCN(C)CC3)c(C(F)(F)F)c2)cc1C#Cc1cnc2cccnn12 [ponatinib]
[5]
  %-inhibition, CHK1: 3.23%
[1]
  %-inhibition of FGFR3: 101%
[2]
  %-inhibition of PKCε: 12%
[3]; kinase AXL, 1 μM compound
  %-inhibition, AXL: 70%
[7]; [9]
  %-inhibition, CDK4/CycD3: 24%
[4]
  %-inhibition of RON: 39%
[8]
  %-inhibition of FYN: 101%

## O=S(=O)(c1cccc2cnccc12)N1CCCNCC1 [fasudil]
[5]
  %-inhibition, CHK1: -11%
[1]
  %-inhibition of FGFR3: -2%
[2]
  %-inhibition of PKCε: -43%
[6]
  %-inhibition of PIM1: 3%
[3]; kinase AXL, 1 μM compound
  %-inhibition, AXL: 2.62%
[7]; [9]
  %-inhibition, CDK4/CycD3: -2.33%
[4]
  %-inhibition of RON: -6%
[8]
  %-inhibition of FYN: 8.5%

## COc1cc(Nc2c(C#N)cnc3cc(OCCCN4CCN(C)CC4)c(OC)cc23)c(Cl)cc1Cl [bosutinib]
[5]
  %-inhibition, CHK1: 83%
[2]
  %-inhibition of PKCε: -0.711%
[8]
  %-inhibition of FYN: 95%

## CO[C@H]1C[C@@H]2CC[C@@H](C)[C@@](O)(O2)C(=O)C(=O)N2CCCC[C@H]2C(=O)O[C@H]([C@H](C)C[C@@H]2CC[C@@H](OCCO)[C@H](OC)C2)CC(=O)[C@H](C)/C=C(\C)[C@@H](O)[C@@H](OC)C(=O)[C@H](C)C[C@H](C)/C=C/C=C/C=C/1C [everolimus]
[5]
  %-inhibition, CHK1: 4%
[1]
  %-inhibition of FGFR3: -9%
[2]
  %-inhibition of PKCε: -2.79%
[6]
  %-inhibition of PIM1: -9%
[3]; kinase AXL, 1 μM compound
  %-inhibition, AXL: -1.68%
[7]; [9]
  %-inhibition, CDK4/CycD3: -9%
[4]
  %-inhibition of RON: -6.45%
[8]
  %-inhibition of FYN: -0.928%

## Cc1ccc(Nc2nccc(N(C)c3ccc4c(C)n(C)nc4c3)n2)cc1S(N)(=O)=O [pazopanib]
[5]
  %-inhibition, CHK1: -7%
[2]
  %-inhibition of PKCε: -5.38%
[6]
  %-inhibition of PIM1: -1.49%
[3]; kinase AXL, 1 μM compound
  %-inhibition, AXL: 24%
[7]; [9]
  %-inhibition, CDK4/CycD3: 16%
[4]
  %-inhibition of RON: 13%

## CNC(=O)c1cc(Oc2ccc(NC(=O)Nc3ccc(Cl)c(C(F)(F)F)c3)c(F)c2)ccn1 [regorafenib]
[5]
  %-inhibition, CHK1: -3%
[1]
  %-inhibition of FGFR3: 97%
[2]
  %-inhibition of PKCε: -8%
[6]
  %-inhibition of PIM1: -9%
[3]; kinase AXL, 1 μM compound
  %-inhibition, AXL: 29%
[7]; [9]
  %-inhibition, CDK4/CycD3: 6.52%
[4]
  %-inhibition of RON: 3.5%
[8]
  %-inhibition of FYN: 55%

## CC(=O)Nc1cccc(-n2c(=O)n(C3CC3)c(=O)c3c(Nc4ccc(I)cc4F)n(C)c(=O)c(C)c32)c1 [trametinib]
[5]
  %-inhibition, CHK1: -0.719%
[1]
  %-inhibition of FGFR3: -5.68%
[2]
  %-inhibition of PKCε: 6%
[6]
  %-inhibition of PIM1: 4.44%
[3]; kinase AXL, 1 μM compound
  %-inhibition, AXL: -1.12%
[7]; [9]
  %-inhibition, CDK4/CycD3: 5.62%
[4]
  %-inhibition of RON: -6.44%
[8]
  %-inhibition of FYN: 9%

## CCN(CC)CCNC(=O)c1c(C)[nH]c(/C=C2\C(=O)Nc3ccc(F)cc32)c1C [sunitinib]
[1]
  %-inhibition of FGFR3: 97%
[3]; kinase AXL, 1 μM compound
  %-inhibition, AXL: 98%
[4]
  %-inhibition of RON: 22%
[8]
  %-inhibition of FYN: 88%

## CO[C@H]1C[C@@H]2CC[C@@H](C)[C@@](O)(O2)C(=O)C(=O)N2CCCC[C@H]2C(=O)O[C@H]([C@H](C)C[C@@H]2CC[C@@H](OC(=O)C(C)(CO)CO)[C@H](OC)C2)CC(=O)[C@H](C)/C=C(\C)[C@@H](O)[C@@H](OC)C(=O)[C@H](C)C[C@H](C)/C=C/C=C/C=C/1C [temsirolimus]
[5]
  %-inhibition, CHK1: 4.42%
[1]
  %-inhibition of FGFR3: -5%
[2]
  %-inhibition of PKCε: 4.32%
[6]
  %-inhibition of PIM1: -8%
[3]; kinase AXL, 1 μM compound
  %-inhibition, AXL: -1.78%
[7]; [9]
  %-inhibition, CDK4/CycD3: -2.83%
[4]
  %-inhibition of RON: -3%
[8]
  %-inhibition of FYN: -1.39%

## CS(=O)(=O)CCNCc1ccc(-c2ccc3ncnc(Nc4ccc(OCc5cccc(F)c5)c(Cl)c4)c3c2)o1 [lapatinib]
[5]
  %-inhibition, CHK1: 12%
[1]
  %-inhibition of FGFR3: 0.327%
[6]
  %-inhibition of PIM1: 0.601%
[3]; 1 µM
  %-inhibition, AXL: 19%
[7]; 1 µM
  %-inhibition, CDK4/CycD3: 1.35%
[4]
  %-inhibition of RON: 1.17%
[8]
  %-inhibition of FYN: 1.29%

## COc1cc2c(Nc3ccc(Br)cc3F)ncnc2cc1OCC1CCN(C)CC1 [vandetanib]
[5]
  %-inhibition, CHK1: 27%
[2]
  %-inhibition of PKCε: -4%
[6]
  %-inhibition of PIM1: -9%
[7]; [9]
  %-inhibition, CDK4/CycD3: -9%
[8]
  %-inhibition of FYN: 88%

## COc1cc2nccc(Oc3ccc(NC(=O)C4(C(=O)Nc5ccc(F)cc5)CC4)cc3)c2cc1OC [cabozantinib]
[5]
  %-inhibition, CHK1: 4.42%
[1]
  %-inhibition of FGFR3: 8%
[2]
  %-inhibition of PKCε: 3%
[6]
  %-inhibition of PIM1: -10%
[3]; kinase AXL, 1 μM compound
  %-inhibition, AXL: 100%
[7]; [9]
  %-inhibition, CDK4/CycD3: -5%
[4]
  %-inhibition of RON: 99%
[8]
  %-inhibition of FYN: 91%
